Measured values from PMC11873239, “A covalent chemical probe for Chikungunya nsP2 cysteine protease with antialphaviral activity and proteome-wide selectivity” (Scientific Reports, 2025).
Where two headings read alike, the source gives them in different places.

Columns and labels:
CHIKV nsP2pro = CHIKV nsP2pro (Chikungunya virus, UniProt F2YI08); conditions: read-out: IC50 (CHIKV nsP2pro inhibition); cited from earlier work
EEEV-nLuc replicon [1] = conditions: read-out: IC50 (EEEV-nLuc replicon)
[2] = system: 20 human cysteine proteases and three viral cysteine proteases
EEEV-nLuc replicon [3] = experiment: microbe, parasite or virus in culture; conditions: Eastern equine encephalitis virus, Fibroblast, in Homo sapiens, 24 h, read-out: IC50 (EEEV-nLuc replicon)

SMILES	IC50 (CHIKV nsP2pro) [nM]	IC50 (EEEV-nLuc replicon [1]) [nM]	inhibition across cysteine protease panel [2]	IC50 (EEEV-nLuc replicon [3]) [nM]
CCOc1ccccc1-c1cc2n(n1)C(CS(C)(=O)=O)CNC2=O (stereo not shown) [Compound 2]	> 40000			
CCOc1ccccc1-c1cc(C(=O)NC/C=C/S(C)(=O)=O)on1 [Compound 3, (E)−3-(2-ethoxyphenyl)-N-(3-(methylsulfonyl)allyl)isoxazole-5-carboxamide]		930	no significant inhibition	930
